{"source": "ChEMBL document CHEMBL3046521", "about": "“Synthesis and antitumor activity of (4-hydroxyphenyl)[5-substituted alkyl/aryl)-2-thioxo-1,3,4-thiadiazol-3-yl]methanone and [(3,4-disubstituted)-1,3-thiazol-2ylidene]-4-hydroxybenzohydrazide” (2011)", "system": "HCC 2998", "test": "Anticancer activity in Homo sapiens (human) HCC2998 cells assessed as cell growth at 10^-5 M after 48 hr by SRB assay", "type": "functional", "conditions": "HCC 2998, 48 h, read-out: Activity", "data": [{"smiles": "O=C(c1ccc(O)cc1)n1nc(-c2c(Cl)cccc2Cl)sc1=S", "values": [{"measurement": "growth at 10 µM", "value": 17.1, "unit": "%"}]}]}
